Results published in article PMC4506051, “Pharmacokinetic Profiles of Active Ingredients and Its Metabolites Derived from Rikkunshito, a Ghrelin Enhancer, in Healthy Japanese Volunteers: A Cross-Over, Randomized Study” (PLoS ONE, 2015).

How the values were obtained:
[1] = Stability of ingredients in gastric pH solution (pH 1.2, 37°C); format: physicochemical; conditions: rikkunshito in acidic solution (pH 1.2) at 37°C
Description: Rikkunshito gradually dissolved in acidic solution (pH 1.2) at 37°C, and the concentration of atractylodin after adding 0.25, 0.5, 1, and 2 h was measured by gas chromatography–mass spectrometry.

[2] = Method validation: stability in standard, stock and working solution; conditions: for Stock solution stability, RR: 0.1 mg/mL (naringenin 0.5 mg/mL)
[3] = Dose proportionality (linearity) test by power model for C max and AUC0-last; conditions: for Dose proportionality test using power model, Inference: linear when 90% CI of β included 1, CIlower ≥0.8, and CIupper ≤1.25; for Dose proportionality test using power model, β: rikkunshito 2.5, 5.0 or 7.5 g
Description: The dose proportionality was analyzed via a power model [21, 22]. […] Evaluation of linearity of the dosage-exposure relationship was conducted with Phoenix WinNonlin and SAS 9.2 (SAS Institute, Inc., Cary, NC).

[4] = Method validation: freeze-thaw stability in plasma; conditions: −30°C to −10°C, 3 cycles
[5] = Method validation: stability in blood
[6] = Method validation: long-term stability in plasma
[7] = Method validation: short-term stability in plasma
[8] = 7.5 g dosage; cited from earlier work
[9] = Exploratory trial: plasma concentration of rikkunshito ingredients after single oral rikkunshito 7.5 g; format: in vivo; conditions: mean ± S.D., n = 4
Procedure, shortened: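 Plasma and urine levels were measured by LC–MS/MS after one 7.5 g oral dose of rikkunshito. Samples were collected before dosing and at 0.5–8 h for blood, or in 0–4 h and 4–8 h fractions for urine. Synephrine was determined after protein-removal plate cleanup; the other ingredients after β-glucuronidase deconjugation (2 h, 37°C) and SPE.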

[10] = Method validation: post-preparative stability (autosampler); conditions: autosampler set at 4°C

C=C(CC[C@@H](C(=O)O)[C@H]1[C@H](O)C[C@@]2(C)C3=C(CC[C@]12C)[C@@]1(C)CC[C@H](OC(C)=O)C(C)(C)[C@@H]1CC3)C(C)C [Pachymic acid]
Stability in gastric pH solution, Quantitative value ([1]; 0.5 h): 40.2 ng/mL | Stability in gastric pH solution, Quantitative value ([1]; 1 h): 46.5 ng/mL | Stability in gastric pH solution, Quantitative value ([1]; 2 h): 28.3 ng/mL | Working solution stability, RR ([2]; refrigerator 53 days, higher concentration (pachymic acid 10, heptamethoxyflavone 4, naringenin 50 ng/mL)): 101.1% | Working solution stability, RR ([2]; refrigerator 53 days, lower concentration (pachymic acid 0.1, heptamethoxyflavone 0.04, naringenin 0.5 ng/mL)): 109.1% | Working solution stability, RR ([2]; refrigerator 128 days, higher concentration (10 / 4 / 50 ng/mL)): 113.2% | Working solution stability, RR ([2]; refrigerator 128 days, lower concentration (0.1 / 0.04 / 0.5 ng/mL)): 102.1% | Stock solution stability, RR ([2]; refrigerator (1°C to 8°C) 54 days): 54 days: 101.7% | Stock solution stability, RR ([2]; refrigerator (1°C to 8°C) 129 days): 129 days: 110.1% | Dose proportionality test using power model, Inference ([3]; AUC0-last): Nonlinear | Dose proportionality test using power model, β ([3]; AUC0-last): 1.39 | Dose proportionality test using power model, Inference ([3]; Cmax): Nonlinear | Dose proportionality test using power model, β ([3]; Cmax): 0.856 | Freeze-thaw stability, RR ([4]; higher concentration (800 / 320 / 4000 pg/mL)): 114.0% | Freeze-thaw stability, RR ([4]; lower concentration (20 / 8 / 100 pg/mL)): 108.8% | Stability in blood, RR ([5]; on ice 2 h, higher concentration (800 / 320 / 4000 pg/mL)): 93.4% | Stability in blood, RR ([5]; on ice 2 h, lower concentration (20 / 8 / 100 pg/mL)): 103.1% | Stability in blood, RR ([5]; room temperature 2 h, higher concentration (pachymic acid 800, heptamethoxyflavone 320, naringenin 4000 pg/mL)): 91.8% | Stability in blood, RR ([5]; room temperature 2 h, lower concentration (pachymic acid 20, heptamethoxyflavone 8, naringenin 100 pg/mL)): 103.1% | Long-term stability, RR ([6]; freezer −30°C to −10°C, 13 days, lower concentration (pachymic acid 20, heptamethoxyflavone 8 pg/mL)): 110.9% | Long-term stability, RR ([6]; freezer, 13 days, higher concentration (pachymic acid 800, heptamethoxyflavone 320 pg/mL)): 113.9% | Long-term stability, RR ([6]; freezer, 39 days, higher concentration (800 / 320 pg/mL)): 107.6% | Long-term stability, RR ([6]; freezer, 39 days, lower concentration (20 / 8 pg/mL)): 104.1% | Long-term stability, RR ([6]; freezer, 228 days, higher concentration (800 / 320 pg/mL)): 92.5% | Long-term stability, RR ([6]; freezer, 228 days, lower concentration (20 / 8 pg/mL)): 89.6% | Short-term stability, RR ([7]; room temperature 25 h, higher concentration (pachymic acid 800, heptamethoxyflavone 320 pg/mL)): 93.8% | Short-term stability, RR ([7]; room temperature 25 h, lower concentration (pachymic acid 20, heptamethoxyflavone 8 pg/mL)): 85.9% | Short-term stability, RR ([7]; room temperature (1°C to 30°C) 4 h, higher concentration (800 / 320 / 4000 pg/mL)): 95.1% | Short-term stability, RR ([7]; room temperature (1°C to 30°C) 4 h, lower concentration (20 / 8 / 100 pg/mL)): 95.8% | Maximum plasma concentration in the preliminary pharmacokinetics study [8]: 0.228 ± 0.116 ng/mL | Plasma concentration, 0 h ([9]; 0 h (preadministration), single oral rikkunshito 7.5 g): 0.14 ± 0.184 ng/mL | Plasma concentration, 0.5 h ([9]; 0.5 h after single oral rikkunshito 7.5 g): 0.126 ± 0.185 ng/mL | Plasma concentration, 1 h ([9]; 1 h after single oral rikkunshito 7.5 g): 0.127 ± 0.178 ng/mL | Plasma concentration, 2 h ([9]; 2 h after single oral rikkunshito 7.5 g): 0.205 ± 0.0765 ng/mL | Plasma concentration, 4 h ([9]; 4 h after single oral rikkunshito 7.5 g): 0.0905 ± 0.181 ng/mL | Plasma concentration, 8 h ([9]; 8 h after single oral rikkunshito 7.5 g): 0.103 ± 0.129 ng/mL | Post-preparative stability, RR ([10]; 24 h, higher concentration (pachymic acid 800, heptamethoxyflavone 320 pg/mL)): 88.4% | Post-preparative stability, RR ([10]; 24 h, lower concentration (pachymic acid 20, heptamethoxyflavone 8 pg/mL)): 92.4% | Post-preparative stability, RR ([10]; 48 h, higher concentration (800 / 320 / 4000 pg/mL)): 98.2% | Post-preparative stability, RR ([10]; 48 h, lower concentration (20 / 8 / 100 pg/mL)): 93.8%
